TGI data for eight compounds are collected here from PubChem BioAssay (NCI).

Test systems include T-47D breast; 786-0 renal; OVCAR-5 ovarian; LOX IMVI melanoma; HOP-62 NSCLC; NCI/ADR-RES ovarian; SW-620 colon; MOLT-4 leukemia; SF-539 CNS; BT-549 breast; HOP-92 NSCLC; OVCAR-8 ovarian; SK-MEL-2 melanoma; OVCAR-3 ovarian; IGROV1 ovarian; SK-MEL-28 melanoma; NCI-H226 lung; K-562 leukemia; MALME-3M melanoma; HL-60(TB) leukemia.
Holding throughout (test): DTP human tumour cell line panel, 48 h

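96-well plates; 48 h exposure; 5 concentrations. Endpoints by linear interpolation between flanking doses. Not reached: highest tested concentration assigned. TGI is the concentration that stops growth completely.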 A value given as a limit tells only on which side of the number the result lay.

In the case of `COC(=O)c1ccc(C)cc1CC1Cc2cccc(C)c2C1=O` (centres undefined), the TGI (in general, the concentration at which net growth stops) was 57.9 µM in the assay with T-47D breast; over 100 µM in the assay on 786-0 renal; over 100 µM with OVCAR-5 ovarian; 9.79 µM in the assay with LOX IMVI melanoma; over 100 µM in the assay on HOP-62 NSCLC; 66.3 µM with NCI/ADR-RES ovarian. Further, the TGI in the assay on SW-620 colon was over 100 µM; in the assay on MOLT-4 leukemia, 18.4 µM; in the assay with SF-539 CNS, 17.6 µM; in the assay with BT-549 breast it was 87.6 µM; in the assay on HOP-92 NSCLC it was 58.7 µM; with OVCAR-8 ovarian, 33.5 µM. Further, the TGI in the assay on SK-MEL-2 melanoma was 17.1 µM; in the assay with OVCAR-3 ovarian, 30.7 µM; in the assay with IGROV1 ovarian, over 100 µM; with SK-MEL-28 melanoma, 55.7 µM; in the assay with NCI-H226 lung it was 9.66 µM; with K-562 leukemia, 9.79 µM. This compound yielded a TGI with MALME-3M melanoma of 31.3 µM.

For `CCOC(=O)c1c(N2CCCC2)[nH]c(=O)c(C(c2ccc(Cl)c([N+](=O)[O-])c2)c2c(O)c(C(=O)OCC)c(N3CCCC3)[nH]c2=O)c1O`, the TGI is over 100 µM in the assay with T-47D breast; over 100 µM in the assay on 786-0 renal; over 100 µM with OVCAR-5 ovarian; 49.4 µM with LOX IMVI melanoma; over 100 µM with HOP-62 NSCLC; 73.4 µM in the assay on NCI/ADR-RES ovarian. The concentration for total growth inhibition (TGI) in the assay with SW-620 colon is over 100 µM; with MOLT-4 leukemia, over 100 µM; with SF-539 CNS, 41.6 µM; with BT-549 breast, 51.8 µM; with HOP-92 NSCLC, 58.3 µM; with OVCAR-8 ovarian, 33.5 µM. Further, the concentration for total growth inhibition (TGI) with OVCAR-3 ovarian was over 100 µM; in the assay with SK-MEL-28 melanoma it was over 100 µM; in the assay on NCI-H226 lung it was over 100 µM; in the assay with K-562 leukemia, over 100 µM; in the assay on MALME-3M melanoma, 84.6 µM.

Regarding `CS(=O)(=O)OCCCSCCSCCCOS(C)(=O)=O`, the concentration for total growth inhibition (TGI) in the assay on T-47D breast, in the assay on 786-0 renal, in the assay with OVCAR-5 ovarian, in the assay on HL-60(TB) leukemia, in the assay with LOX IMVI melanoma and in the assay on HOP-62 NSCLC was over 100 µM in each case. For the same compound, the concentration for total growth inhibition (TGI) in the assay with NCI/ADR-RES ovarian, in the assay on SW-620 colon, in the assay with MOLT-4 leukemia, in the assay on SF-539 CNS, in the assay with BT-549 breast and in the assay on HOP-92 NSCLC was over 100 µM each time. For the same compound, the TGI in the assay on OVCAR-8 ovarian, in the assay on OVCAR-3 ovarian, in the assay on IGROV1 ovarian, in the assay on SK-MEL-28 melanoma and with K-562 leukemia was over 100 µM in each case.

For the compound `COC1=C2CC(C)CC(OC)C(OC(=O)CN)[C@H](C)/C=C(\C)C(OC(N)=O)C(OC)/C=C\C=C(/C)C(=O)NC(=CC1=O)C2=O` (some centres undefined), the TGI was 1.32 µM in the assay on T-47D breast; 6.45 µM with 786-0 renal; 13.8 µM in the assay with OVCAR-5 ovarian; 0.828 µM with LOX IMVI melanoma; 6.02 µM in the assay on HOP-62 NSCLC; 27.8 µM in the assay with NCI/ADR-RES ovarian. Moreover, the TGI with SW-620 colon was found to be 1.25 µM; with MOLT-4 leukemia, 1.57 µM; in the assay with SF-539 CNS, 12.7 µM; with BT-549 breast it was 14.2 µM; in the assay on HOP-92 NSCLC it was 1.27 µM; in the assay with OVCAR-8 ovarian, 4.24 µM. Also, the total growth inhibition concentration (TGI) was 14.7 µM in the assay with SK-MEL-2 melanoma; 2.98 µM with OVCAR-3 ovarian; 1.62 µM with IGROV1 ovarian; 1.75 µM in the assay on SK-MEL-28 melanoma; 24.7 µM in the assay on NCI-H226 lung; over 100 µM with K-562 leukemia. In the assay with MALME-3M melanoma, this compound had a TGI of 1.59 µM.

`COc1ccc(CCNC(=O)c2ccccc2C2c3ccc(OCc4ccccc4)cc3Oc3cc(OCc4ccccc4)ccc32)cc1OC`: the total growth inhibition concentration (TGI) in the assay with T-47D breast, in the assay with 786-0 renal, in the assay on OVCAR-5 ovarian, in the assay with HL-60(TB) leukemia, in the assay with LOX IMVI melanoma and with HOP-62 NSCLC was over 100 µM in each case. Also, the TGI in the assay on NCI/ADR-RES ovarian, with SW-620 colon, with MOLT-4 leukemia, with BT-549 breast, with OVCAR-8 ovarian and in the assay on SK-MEL-2 melanoma was over 100 µM each time. In addition, the concentration for total growth inhibition (TGI) with OVCAR-3 ovarian, with IGROV1 ovarian, in the assay with SK-MEL-28 melanoma, in the assay on NCI-H226 lung, in the assay with K-562 leukemia and in the assay with MALME-3M melanoma was over 100 µM in each case.

On to `C/C(=N\Nc1nc2ccccc2[nH]1)c1cnccn1`, for which the TGI with T-47D breast was over 68.4 µM; in the assay with 786-0 renal, over 100 µM; with OVCAR-5 ovarian, over 100 µM; in the assay on HL-60(TB) leukemia, 0.429 µM; with LOX IMVI melanoma, over 30.5 µM; in the assay with HOP-62 NSCLC, over 100 µM. Further, the TGI was 21.3 µM in the assay on NCI/ADR-RES ovarian; over 66 µM with SW-620 colon; over 100 µM in the assay on MOLT-4 leukemia; over 85.3 µM in the assay on BT-549 breast; 2.38 µM in the assay with HOP-92 NSCLC; over 93.3 µM with OVCAR-8 ovarian. The TGI was 26 µM in the assay with SK-MEL-2 melanoma; over 100 µM in the assay on OVCAR-3 ovarian; over 38.4 µM in the assay with IGROV1 ovarian; over 100 µM with K-562 leukemia; over 25.6 µM in the assay with MALME-3M melanoma.

With `Cc1cn(Cc2cccc(C3=NCCCN3)c2)c(=O)n(Cc2cccc(C3=NCCCN3)c2)c1=O`, the TGI in the assay on T-47D breast, with 786-0 renal, in the assay on OVCAR-5 ovarian, in the assay with HL-60(TB) leukemia, in the assay on LOX IMVI melanoma and with HOP-62 NSCLC was over 100 µM in each case. The TGI with NCI/ADR-RES ovarian, in the assay on SW-620 colon, in the assay with MOLT-4 leukemia, with BT-549 breast, in the assay on HOP-92 NSCLC and with OVCAR-8 ovarian was over 100 µM in each case. The TGI in the assay with SK-MEL-2 melanoma, with OVCAR-3 ovarian, in the assay with IGROV1 ovarian, with SK-MEL-28 melanoma, in the assay with K-562 leukemia and in the assay with MALME-3M melanoma was over 100 µM in each case.

As to `COc1c(C(C)(C)C)cc(CC2C(=O)C=CC2=O)cc1C(C)(C)C`, the TGI in the assay on T-47D breast is 12.7 µM; in the assay with 786-0 renal, over 22.3 µM; in the assay on OVCAR-5 ovarian it was 35.8 µM; with HL-60(TB) leukemia, 11.3 µM; in the assay with LOX IMVI melanoma, 40.2 µM; in the assay with HOP-62 NSCLC, 36.9 µM. Moreover, the TGI with NCI/ADR-RES ovarian was over 80.6 µM; with SW-620 colon it was 28.2 µM; in the assay with MOLT-4 leukemia, 10.3 µM; in the assay on SF-539 CNS, 48.3 µM; in the assay on BT-549 breast it was 41.1 µM; with HOP-92 NSCLC, 37 µM. Besides, the TGI with OVCAR-8 ovarian turned out to be 66.9 µM; in the assay with SK-MEL-2 melanoma, 36.7 µM; in the assay on OVCAR-3 ovarian it was 33.9 µM; with IGROV1 ovarian it was 29.2 µM; with SK-MEL-28 melanoma it was 43.4 µM; in the assay with K-562 leukemia, 14.1 µM. The same compound returned a concentration for total growth inhibition (TGI) in the assay on MALME-3M melanoma of 49.6 µM.
